How the values were obtained:
[1] = Stability of apixaban in human plasma; assay type: in vitro ADME; conditions: at −20°C
[2] = assay type: in vivo, human
coagulation factor Xa = conditions: cited from earlier work
[3] = cited from earlier work
[4] = compound lacks ionizable groups; cited from earlier work
[5] = tested on: breast cancer resistance protein; conditions: cited from earlier work
P-glycoprotein = conditions: apixaban: ref not given; famotidine: ref 20; cited from earlier work
hOCT-2 transporters = conditions: in vitro findings; ref data on file, Bristol-Myers Squibb, Princeton, NJ, USA; cited from earlier work
[6] = assay type: in vivo, human; remark: listed apart in the source
hOCT-1 = conditions: cited from earlier work
gastric pH = conditions: cited from earlier work
[7] = tested on: human organic cation transporter (hOCT)-3; conditions: cited from earlier work
[8] = cited from earlier work; remark: listed apart in the source
hOCT-2 = conditions: cited from earlier work

Question: With `COc1ccc(-n2nc(C(N)=O)c3c2C(=O)N(c2ccc(N4CCCCC4=O)cc2)CC3)cc1` [Apixaban, 1-(4-methoxyphenyl)-7-oxo-6-(4-(2-oxopiperidin-1-yl)phenyl)-4,5,6,7-tetrahydro-1H-pyrazolo[3,4-c]pyridine-3-carboxamide] as the compound, how does the “Stability in human plasma” value [1] read?
Answer: Its value is “at least 589 days”.

Question: And the AUC(0-inf) ([2]; both, human, plasma, po, 10 mg)?
Answer: Its AUC(0-inf) is 2220 ng·h/mL.

Question: What about the AUC(0-t) ([2]; both, human, plasma, po, 10 mg) of the same compound?
Answer: Its AUC(0-t) is 2190 ng·h/mL.

Question: What about the Cmax ([2]; both, human, plasma, po, 10 mg) of the same compound?
Answer: Its Cmax is 230 ng/mL.

Question: And the half-life ([2]; both, human, plasma, po, 10 mg)?
Answer: The half-life was 9.2 h.

Question: What about the “Predose period 2 apixaban concentration as fraction of Cmax” value ([2]; six subjects with measurable predose concentrations) of the same compound?
Answer: The value was < 1.5%.

Question: What about the “Factor Xa inhibition (description)” value (coagulation factor Xa) of the same compound?
Answer: Its value is “potent, reversible, direct, and highly selective inhibitor”.

Question: What about the “Effect of food on apixaban exposure” value [3] of the same compound?
Answer: The value was “no relevant effect”.

Question: What about the “Renal excretion as share of total clearance” value [3] of the same compound?
Answer: Its value is “approximately 27%”.

Question: What about the Elimination half-life ([3]; clinical studies) of the same compound?
Answer: The Elimination half-life was “approximately 12 hours”.

Question: What about the Oral bioavailability ([3]; clinical studies) of the same compound?
Answer: Its Oral bioavailability is “approximately 50%”.

Question: What about the “Aqueous solubility dependence on pH” value [4] of the same compound?
Answer: The value was “not affected by changes in pH”.

Question: And the “Breast cancer resistance protein substrate” value [5]?
Answer: Its value is “substrate”.

Question: And the P-glycoprotein substrate (P-glycoprotein)?
Answer: The P-glycoprotein substrate was “substrate”.

Question: What about the hOCT-2 substrate (hOCT-2 transporters) of the same compound?
Answer: Its hOCT-2 substrate is “not a substrate”.

Question: What about the “Deaths, serious adverse events, discontinuations, bleeding-related adverse events” value ([6]; 18 healthy subjects, both treatment periods) of the same compound?
Answer: Its value is “No deaths, serious adverse events, discontinuations due to adverse events, or clinically relevant bleeding-related adverse events”.

Question: And the Tolerability ([6]; apixaban 10 mg alone and with famotidine 40 mg, healthy subjects)?
Answer: Its Tolerability is “well tolerated”.

Question: With `NC(N)=Nc1nc(CSCCC(N)=NS(N)(=O)=O)cs1` [famotidine] as the compound, how does the “Inhibition of hOCT-1” value (hOCT-1) read?
Answer: The value was “moderate inhibitor”.

Question: And the “Time for gastric pH to return to baseline after cessation of administration” value (gastric pH)?
Answer: The value was 10–12 hours.

Question: What about the “Time of maximal increases in gastric pH post-dose” value (gastric pH) of the same compound?
Answer: The value was 1–3 hours.

Question: What about the “Effect of coadministration on apixaban Cmax, AUC0–T, or AUC∞” value ([2]; famotidine 40 mg 3 hours before apixaban 10 mg, healthy subjects) of the same compound?
Answer: Its value is “no effect”.

Question: And the “Inhibition of hOCT-3” value [7]?
Answer: Its value is “potent inhibitor”.

Question: And the P-glycoprotein substrate (P-glycoprotein)?
Answer: The P-glycoprotein substrate was “substrate”.

Question: And the Metabolism [8]?
Answer: Its Metabolism is “minimally metabolized”.

Question: And the “Potential for CYP-mediated drug–drug interactions” value [8]?
Answer: The value was “minimal potential”.

Question: And the “Time of maximal plasma concentrations after oral administration” value [8]?
Answer: The value was 2 to 3 h.

Question: And the “Inhibition of hOCT-2” value (hOCT-2)?
Answer: The value was “moderate inhibitor”.
